Measured values as given in patent publication US5571793A, “Endoparasiticidal compositions based on open-chain tetradepsipeptides” (Bayer Aktiengesellschaft, priority 1993, dated 1996).

The compounds below were run on Haemonchus contortus (assay: In vivo nematode test Haemonchus contortus/sheep). Details: sheep infected experimentally with Haemonchus contortus; pure active compound orally and/or intravenously; dose at which nematode egg excretion with the faeces stops completely.
Procedure: Sheep which had been infected experimentally with Haemonchus contortus were treated after the prepatency period of the parasites had elapsed. The active compounds were administered orally and/or intravenously in the form of the pure active compound.
The degree of effectiveness is determined by quantitatively determining the nematode eggs excreted with the faeces before and after the treatment.
If egg excretion stops completely after the treatment, this means that the nematodes have been aborted or damaged in such a manner that they no longer produce eggs (dosis effectiva).
Active compounds which have been tested and effective dosage rates (dosis effectiva) can be seen from the Table which follows: […]

SMILES	Dosis effectiva [mg/kg]
CCCN(Cc1ccccc1)[C@@H](CC(C)C)C(=O)O[C@H](C)C(=O)N(CCC)[C@@H](CC(C)C)C(=O)O[C@H](Cc1ccccc1)C(=O)O [Example 2, N-Benzyl-N-propyl-L-leucyl-D-lactyl-N-propyl-L-leucyl-D-phenyllactic acid]	10
CN[C@@H](Cc1ccccc1)C(=O)O[C@H](C)C(=O)N(C)[C@H](Cc1ccccc1)C(=O)O[C@H](C)C(=O)OC(C)(C)C [Example 3, tert.-Butyl-N-methyl-L-phenylalanyl-D-lactyl-N-methyl-D-phenylalanyl-D-lactate]	10
CCN[C@@H](CC(C)C)C(=O)O[C@H](C)C(=O)N(CC)[C@@H](CC(C)C)C(=O)O[C@H](Cc1ccccc1)C(=O)OC(C)(C)C [Example 1, tert.-Butyl-N-ethyl-L-leucyl-D-lactyl-N-ethyl-L-leucyl-D-3-phenyllactate]	10
